From ChEMBL document CHEMBL1201862, “PubChem BioAssay data set” (2004)
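Results reflect a 48-hour exposure of cells in 96-well plates to compound at five concentrations. Here, GI50 denotes the concentration required for 50% inhibition of growth.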 Active and inactive are the calls of the source. No stated cut-off is given here; in the data, active = GI50 up to about 1.1 µM and inactive = higher.

Assays:
Assay in all cases: NCI tumour cell line growth inhibition, 48 h
ACHN = system: ACHN
HL-60 = system: HL-60
HOP-92 = system: HOP-92
K562 = system: K562
LOX IMVI = system: LOX IMVI
Malme-3M = system: Malme-3M
RPMI-8226 = system: RPMI-8226
RXF 393 = system: RXF 393
SF-295 = system: SF-295
SK-MEL-2 = system: SK-MEL-2
SK-OV-3 = system: SK-OV-3
SN12C = system: SN12C
SW-620 = system: SW-620
U-251 = system: U-251
UACC-257 = system: UACC-257
CAKI-1 = system: CAKI-1
SR = system: SR

Measured: GI50

CCC1(CC)C(=O)NC(=S)N=C1N
inactive: ACHN > 100 µM | HL-60 > 100 µM | HOP-92 > 100 µM | K562 > 100 µM | LOX IMVI > 100 µM | Malme-3M > 100 µM | RPMI-8226 > 100 µM | RXF 393 > 100 µM | SF-295 > 100 µM | SK-MEL-2 > 100 µM | SK-OV-3 > 100 µM | SN12C > 100 µM | SW-620 > 100 µM | U-251 > 100 µM | UACC-257 > 100 µM

CCc1cccc(C)c1NC(=O)C1=C(C)NC(C)=C(C(=O)Nc2c(C)cccc2CC)C1c1ccc([N+](=O)[O-])cc1
inactive: ACHN 18.3 µM | CAKI-1 25.5 µM | HL-60 17.9 µM | HOP-92 2.75 µM | K562 23.9 µM | LOX IMVI 40.9 µM | Malme-3M 75.3 µM | RPMI-8226 15.3 µM | RXF 393 24.4 µM | SF-295 58.7 µM | SK-MEL-2 35.6 µM | SK-OV-3 > 100 µM | SN12C 45.7 µM | SW-620 72.1 µM | U-251 60 µM | UACC-257 41.8 µM

O=c1[nH]c(=O)n([C@@H]2C[C@H](CO)[C@H](O)C2)cc1/C=C/Br
inactive: ACHN > 100 µM | CAKI-1 > 100 µM | HL-60 > 100 µM | HOP-92 > 100 µM | K562 > 100 µM | LOX IMVI > 100 µM | Malme-3M > 100 µM | RPMI-8226 > 100 µM | SF-295 > 100 µM | SK-MEL-2 > 100 µM | SK-OV-3 > 100 µM | SW-620 > 100 µM | U-251 > 100 µM | UACC-257 > 100 µM

NC1=NN(c2ccccc2)C(=O)C1C(=O)CCC(=O)Nc1cccc(Cl)c1 (stereo unspecified)
inactive: ACHN > 100 µM | CAKI-1 > 100 µM | HL-60 > 100 µM | HOP-92 > 100 µM | K562 > 100 µM | LOX IMVI > 100 µM | Malme-3M > 100 µM | RXF 393 > 100 µM | SF-295 > 100 µM | SK-MEL-2 > 100 µM | SK-OV-3 > 100 µM | SN12C > 100 µM | SW-620 > 100 µM | U-251 > 100 µM | UACC-257 > 100 µM

O=c1cc(-c2ccccc2)nc(/C=C(\O)c2ccncc2)n1-c1ccccc1
inactive: ACHN > 100 µM | CAKI-1 > 100 µM | HL-60 > 100 µM | HOP-92 > 100 µM | K562 > 100 µM | LOX IMVI > 100 µM | Malme-3M > 100 µM | RXF 393 > 100 µM | SF-295 > 100 µM | SK-MEL-2 > 100 µM | SK-OV-3 > 100 µM | SN12C > 100 µM | SW-620 > 100 µM | U-251 > 100 µM | UACC-257 > 100 µM

COc1ccc(C(C2=C(O)CC(C)OC2=O)C2=C(O)CC(C)OC2=O)cc1 (stereo unspecified)
inactive: ACHN > 100 µM | CAKI-1 > 100 µM | K562 > 100 µM | LOX IMVI > 100 µM | Malme-3M > 100 µM | RPMI-8226 > 100 µM | SF-295 > 100 µM | SK-MEL-2 > 100 µM | SN12C > 100 µM | SR > 100 µM | SW-620 > 100 µM | U-251 > 100 µM | UACC-257 > 100 µM

COc1ccc2[nH]c3c4c(c5cc(C(C)(C)C)ccc5c3c2c1)C(=O)N(c1ccccc1)C4=O
inactive: CAKI-1 > 100 µM | HL-60 > 100 µM | K562 > 100 µM | LOX IMVI > 100 µM | Malme-3M > 100 µM | RPMI-8226 > 100 µM | RXF 393 > 100 µM | SF-295 > 100 µM | SK-MEL-2 > 100 µM | SK-OV-3 > 100 µM | SW-620 > 100 µM | U-251 27.7 µM | UACC-257 > 100 µM

CC(C)[C@H](COC(C)(C)C)/N=C/N1CSc2ccccc21
inactive: ACHN 25.7 µM | HL-60 26.4 µM | HOP-92 17.6 µM | K562 33.7 µM | LOX IMVI 33.7 µM | RPMI-8226 20.4 µM | RXF 393 28.7 µM | SF-295 24.4 µM | SK-MEL-2 36.2 µM | SK-OV-3 29 µM | SN12C 28.1 µM | SW-620 35.4 µM | U-251 32.5 µM

O=C(/N=C(\Nc1ccccc1)SCCS/C(=N/C(=O)c1cccs1)Nc1ccccc1)c1cccs1
inactive: ACHN 43.6 µM | CAKI-1 23.3 µM | HOP-92 6.37 µM | K562 35.2 µM | LOX IMVI 36.3 µM | Malme-3M 91.6 µM | RPMI-8226 36.8 µM | RXF 393 22.6 µM | SF-295 52.7 µM | SK-MEL-2 94.6 µM | SN12C 59.8 µM | SW-620 95.7 µM | U-251 96.6 µM | UACC-257 33 µM

CCCCCCCCCCCCC(Br)C(C)=O (stereo unspecified)
inactive: ACHN > 100 µM | HL-60 > 100 µM | HOP-92 > 100 µM | LOX IMVI > 100 µM | Malme-3M > 100 µM | RXF 393 > 100 µM | SF-295 > 100 µM | SK-MEL-2 > 100 µM | SK-OV-3 > 100 µM | SN12C > 100 µM | SW-620 > 100 µM | U-251 > 100 µM | UACC-257 > 100 µM

COc1ccc(/C=N/N=C(\N)NO)c(Cl)c1O
inactive: ACHN 14.9 µM | CAKI-1 10.3 µM | HOP-92 35.2 µM | K562 3.63 µM | LOX IMVI 3.1 µM | Malme-3M 28.4 µM | RPMI-8226 36 µM | RXF 393 16.5 µM | SF-295 4.9 µM | SK-MEL-2 14.2 µM | SK-OV-3 22 µM | SN12C 27.4 µM | SW-620 19.4 µM | U-251 26.8 µM | UACC-257 20.2 µM

COC(c1ccccc1)C(c1ccccc1)N1CCOCC1 (stereo unspecified)
inactive: ACHN > 100 µM | CAKI-1 > 100 µM | HL-60 89.5 µM | HOP-92 > 100 µM | K562 > 100 µM | LOX IMVI > 100 µM | Malme-3M > 100 µM | RPMI-8226 49.7 µM | RXF 393 > 100 µM | SF-295 > 100 µM | SK-MEL-2 > 100 µM | SK-OV-3 > 100 µM | SN12C > 100 µM | SW-620 > 100 µM | U-251 > 100 µM | UACC-257 > 100 µM

O=C1Nc2ccccc2N=CC1NC(=O)C(c1ccccc1)c1ccccc1 (stereo unspecified)
inactive: ACHN > 100 µM | CAKI-1 > 100 µM | HL-60 > 100 µM | HOP-92 32.5 µM | K562 > 100 µM | LOX IMVI > 100 µM | Malme-3M > 100 µM | RPMI-8226 > 100 µM | RXF 393 > 100 µM | SF-295 > 100 µM | SK-MEL-2 > 100 µM | SK-OV-3 > 100 µM | SN12C > 100 µM | SW-620 > 100 µM | U-251 > 100 µM | UACC-257 > 100 µM

Cc1ccc(NC(=O)NC23CC4CC(CC(F)(C4)C2)C3)cc1
inactive: ACHN > 100 µM | HL-60 64.3 µM | HOP-92 55.2 µM | K562 44.6 µM | LOX IMVI > 100 µM | Malme-3M > 100 µM | RPMI-8226 28.3 µM | RXF 393 > 100 µM | SK-MEL-2 > 100 µM | SK-OV-3 > 100 µM | SW-620 > 100 µM | U-251 > 100 µM | UACC-257 > 100 µM
